Results published in patent publication US7713960B2, “Inhibition of the Raf/Mek/P-Erk pathway for treating cancer” (University of South Florida, priority 2005, dated 2010).
Values joined by “and” are separate entries in the source; they are usually repeats but may differ in a detail not shown here. Equal entries are not always repeated. Structures can show the parent of a compound that is named as a salt.

Tests used:
P-Erk 1/2 = P-Erk 1/2 levels (Western blotting), SNB-19; type: cell-based, human
Procedure: Western Blotting—Treated cell samples were lysed in 30 mM HEPES, 10 mM NaCl, 5 mM MgCl2, 25 mM NaF, 1 mM EGTA, 1% Triton-X-100, 10% Glycerol, 2 mM Sodium orthovanidate, 10 μg/mL aprotinin, 10 μg/mL soybean trypsin inhibitor, 25 μg/mL leupeptin, 2 mM phenylmethylsulfonylfluoride (PMSF), 6.4 mg/mL p-nitrophenylphosphate for 30 minutes at 4° C., and proteins run on SDS-PAGE gels then transferred to nitrocellulose membranes. Membranes were blocked in either 5% milk in PBS, pH 7.4, containing 0.1% Tween-20 (PBS-T) or 1% BSA in TBS, pH 7.5, containing 0.1% Tween-20 (TBS-T). Phospho-STAT3 and phospho-AKT antibodies were diluted in 1% BSA in TBS-T while phospho-c-Raf, phospho-Mek, and phospho-p44/p42 MAPK antibodies (Cell Signaling) were diluted in 5% milk in PBS-T for either 1 hour at room temperature or overnight at 4° C. HRP-conjugated secondary antibodies (Jackson ImmunoResearch, West Grove, Pa.) were diluted in 5% milk in PBS-T or TBS-T at a 1:1000 dilution for one hour at room temperature. Western blots results were visualized using enhanced chemiluminescence. Stripping of the membranes for reblotting was done using stripping buffer (62.5 mM Tris pH 7.6, 2% SDS, 0.7% 2-mercaptoethanol) at 50° C. for 30 minutes.

MDA-MB-231 cells [1] = assay: Anchorage-dependent growth (MTT assay), MDA-MB-231; type: cell-based, human
Procedure: MTT Assay—2000 cells per well were plated into 96 well tissue culture plates, and the cells were allowed to attach overnight at 37° C. with 10% CO2. Cells were then treated with increasing concentrations of ARA-211, or vehicle (DMSO) and incubated for four days. At that time treatment medium was removed and replaced with 100 μl of lmg/ml MTT (Sigma-Aldrich, St. Louis, Mo.) in media and incubated at 37° C., 10% CO2 for 3 hours. After 3 hours the MTT media was removed and replaced with 100 μl/well of DMSO, rocked at room temperature for 5 minutes, then absorbance read at 540 nm on a micro-plate reader.

HCT-116 cells = assay: Apoptosis assay (Cell Death Detection ELISA), HCT-116; type: cell-based, human; conditions: 48 hours, two single values, dihydrochloride
Procedure: Apoptosis Assay—Apoptosis was analyzed using the Cell Death Detection ELISA (Roche, Indianapolis, Ind.) measuring cytoplasmic histone-associated mono- and oligonucleosome DNA fragments. Procedures were carried out according to the manufacturers protocol. Briefly, 1×10^5 cells were plated in 60 mm dishes and treated with various doses of ARA-211 or vehicle for 48 hours. Cells were lysed with the provided lysis buffer and lysate was incubated on the ELISA plate for 1 hour to capture the histone associated DNA indicative of apoptotic cells. Anti-DNA peroxidase conjugated antibody was added to detect the cleaved DNA and the microplate was washed and developed with ABTS substrate which was quantitated by microplate reader at 405 nm.

c-Raf-1 = molecular target: T1, c-Raf-1 (Homo sapiens, UniProt P04049); assay: In vitro kinase assay, c-Raf-1 immunoprecipitated from MDA-MB-231 cells; type: biochemical; conditions: immunoprecipitated kinase treated in vitro, 10 μM
T1 construct: c-Raf-1 and Mek-1, immunoprecipitated from MDA-MB-231 cells; endogenous in cells; host or cells: MDA-MB-231
T1 sequence (P04049 whole entry): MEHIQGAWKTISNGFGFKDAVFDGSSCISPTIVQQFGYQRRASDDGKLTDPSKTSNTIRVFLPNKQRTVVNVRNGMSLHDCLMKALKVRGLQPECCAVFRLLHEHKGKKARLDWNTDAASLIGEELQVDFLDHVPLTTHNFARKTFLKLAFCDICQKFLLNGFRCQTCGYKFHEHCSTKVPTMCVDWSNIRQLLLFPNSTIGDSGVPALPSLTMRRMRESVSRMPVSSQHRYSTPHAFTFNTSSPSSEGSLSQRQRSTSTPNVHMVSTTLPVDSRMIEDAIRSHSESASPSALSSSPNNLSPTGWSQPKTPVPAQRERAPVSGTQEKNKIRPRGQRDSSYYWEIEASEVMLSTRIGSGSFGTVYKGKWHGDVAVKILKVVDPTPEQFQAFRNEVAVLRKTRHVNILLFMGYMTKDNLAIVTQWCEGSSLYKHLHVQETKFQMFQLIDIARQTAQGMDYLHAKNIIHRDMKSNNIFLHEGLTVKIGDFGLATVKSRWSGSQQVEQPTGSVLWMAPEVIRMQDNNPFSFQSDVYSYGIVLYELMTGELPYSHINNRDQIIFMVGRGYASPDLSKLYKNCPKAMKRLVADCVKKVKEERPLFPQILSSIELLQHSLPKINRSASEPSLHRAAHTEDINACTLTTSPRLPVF
Procedure: In Vitro Kinase Assays—MDA-MB-231 cells (2×10^6) were lysed for 30 minutes at 4° C. in RIPA-150 buffer (10 mM Tris pH 7.5, 150 mM NaCl, 10% glycerol, 5 mM EDTA, 1% Triton X-100, 0.1% SDS, 100 μM sodium orthovanadate, 1 μM aprotinin, 10 μM leupeptin, 10 μM antipain). Cell debris was pelleted at 13000 rpm for 15 minutes at 4° C. and the lysate was rocked overnight with 10 μg of either c-Raf or MEK antibodies (Santa Cruz Biotechnologies, Santa Cruz, Calif.). 25 μl of protein A/G PLUS agarose (Santa Cruz Biotechnology) was then added and rocked for 4 hours at 4° C. Samples were spun at 2000 rpm for 5 minutes to collect the agarose beads, which were then washed four times with lysis buffer. On the final wash each pellet was divided into 5. […]

MDA-MB-231 cells [2] = assay: Alamar Blue proliferation assay, MDA-MB-231; type: cell-based, human; conditions: MDA-MB-231 with CA-Mek; 10 μM, 48 hours
Procedure: Cell Lines and Transfections—All cell lines used were obtained from American Type Tissue Collection (ATCC), (Manassas, Va.), or from the DCTD Tumor Repository, (Frederick, Md.). Propagation was carried out according to ATCC protocols. Propagation media was obtained from Invitrogen Corporation (Carlsbad, Calif.). DNA transfections were carried out using TransIT-LT1 transfection reagent (Takara Mirus, Madison, Wis.) according to the manufacturer's protocol. Briefly, 4×10^5 MDA-MB-231 cells were grown to approximately 70% confluency in medium supplemented with 10% FBS (Atlanta Biologicals, Atlanta, Ga.) in the absence of antibiotics. For transfection, LT1 was pre-incubated in 200 μl per transfection in Opti-MEM (Invitrogen) for 20 minutes prior to addition of plasmid. […]
Alamar Blue proliferation assay—For proliferation assays using exogenous constitutively activated MEK or the B2AR antagonist ICI-118.551, Alamar Blue metabolism assay used to determine cell viability according to the manufacturers protocol (Biosource, Camarillo, Calif.). […] Media/Alamar Blue was removed from the cells and aliquoted into 96 well plates (100 μl per well) and fluorescence read on a Wallac Victor 2 plate reader at excitation 540 nm, and emission 615 nm.

Structure (SMILES): CC(C)(C)NCC(O)c1ccc(O)c(CO)n1 (centres unmarked) [ARA-211, 2-hydroxymethyl-3-hydroxy-6-(1-hydroxy-2-tert-butylaminoethyl) pyridine, dihydrochloride]
- P-Erk ½ (% Inhibition) (P-Erk 1/2): 0%
- Anchorage Dependent Growth (% Inhibition) (MDA-MB-231 cells [1]): 60.6 ± 6.5%
- Apoptosis (% Induction) (HCT-116 cells): 0% and 1.2%
- in vitro c-Raf-1 kinase activity (c-Raf-1): did not inhibit
- inhibition of tumor growth in cells ectopically expressing constitutively activated Mek-1 (MDA-MB-231 cells [2]): resistant
